Read-outs that look alike come from different tables or passages of the source. Ends that are not written are not given here.
Experiments:
[1] = tested on: E. histolytica HM1:IMSS trophozoites; type: cell-based, Entamoeba histolytica; conditions: MTT, 24 h
Procedure: Axenic E. histolytica HM1:IMSS trophozoites were maintained in TYI-S-33 medium supplemented with 15% adult bovine serum (Microlab) and 3% Diamond vitamin stock solution 40× (Sigma-Aldrich) under anaerobic conditions at 37°C for 72 h. Virulence of trophozoites was maintained through successive passages into hamster liver, followed by recovery of parasites from the induced amoebic liver abscesses. Trophozoites grown for 72 h (log-phase) were harvested by ice-chilling for 5 min and centrifugation at 150 g for 5 min at 4°C.
Trophozoites were harvested from cultures after 72 h, as mentioned above, and were seeded in 96-well culture plates at 2 × 10^4 trophozoites in 200 μl of fresh TYI-S-33 medium. […] The plates were incubated for 24 h at 37°C and viability was determined using 3-[4,5-dimethylthiazol-2-yl]-2,5-diphenyltetrazolium bromide (MTT). […] Finally, the absorbance at 595 nm was measured within 15 min, using a plate reader Multiskan FC (Thermo Scientific). A MTT calibration curve was previously calculated using amoeba densities of between 1 × 10^3 and 1 × 10^5 parasites/well. […] The total number of parasites after treatments was also determined following the same methodology, but adding to the wells only 250 µM of the peptides separately and incubating for 24 h at 37°C. Amoebas were harvested by ice chilling for 5 min and counted on a hemocytometer using a Nikon TMS inverted microscope.

E. histolytica = conditions: 20 mg/kg orally daily for 7 days, murine model, cited from earlier work
From the text: Intestinal parasite infections, including amoebiasis, remain the main causes of morbidity and mortality in developing countries. In Mexico, amoebiasis is included in the list of the 20 most frequent communicable diseases, as the numbers of new cases of intestinal and hepatic amoebiasis in 2016 were approximately 220000 and 560, respectively, according to the Secretary of Health (http://www.epidemiologia.salud.gob.mx/anuario/2016/morbilidad/nacional/distribucion_casos_nuevos_enfermedad_fuente_notificacion.pdf). Treatment with metronidazole and other nitro-imidazole derivatives remains the ... || Finally, our results regarding the high efficiency of the peptides at resolving murine intestinal amoebiasis opens the possibility of using them as potential new compounds for the treatment of the disease, either alone or in combination with metronidazole. This would reduce the concentration of the drug needed to resolve an amoebic infection and, in turn, reduce the adverse effects of the drug and the potential development of resistance in the parasite. The mechanism by which the peptides controlled intestinal infection by amoebas in mice remains unknown. The higher efficiency of Lfampin, whic ...

Question: Which results are given for DLIWKLLSKAQEKFGKNKSR [Lfampin]?
Answer: IC50 ([1]; 37°C, estimated (Supplementary Figure S1)): 220 µM; trophozoites killed ([1]; doses higher than 100 μM): 80%

Question: For lactoferrin, which intestinal infection resolved (E. histolytica) is on record?
Answer: Its intestinal infection resolved is “up to 63%”.

Question: What about the intestinal infection resolved (E. histolytica; listed as native Lf) of the same substance?
Answer: Its intestinal infection resolved is 63%.
